Assay results as given in patent publication US10376520B2, “Methods for the treatment of cardiovascular disorders” (Galapagos NV, priority 2015, dated 2019).

Test system: RA patients
Test: Lipoprotein A (Lp(a)) level (Selectra autoanalyzer), Study 4
Assay type: in vivo, human
Settings: for LpA level, 4 weeks CFB: 4 weeks change from baseline
Method: Randomized double-blind, placebo-controlled add on study in subjects with active RA who have an inadequate response to MTX monotherapy, in combination with methotrexate, administered for 4 weeks in the treatment of subjects with active rheumatoid arthritis who have an inadequate response to methotrexate alone.
Compound 1 (dosed as a [Compound 1:HCl:3H2O]) capsules administered orally in 30 mg, 75 mg, 150 mg, or 300 mg doses per day for 4 weeks.
Lipoprotein A (Lp(a)) were measured on the Selectra autoanalyzer (Sopachem BV, 44-RI Straat 33, 4051 AP Ochten, The Netherlands). All assays were commercially available from DiaSys Diagnostic Systems GmbH, Alte Strasse 9, 65558 Holzheim, Germany.

O=C(Nc1nc2cccc(-c3ccc(CN4CCS(=O)(=O)CC4)cc3)n2n1)C1CC1 [Compound 1, cyclopropanecarboxylic acid {5-[4-(1,1-dioxo-thiomorpholin-4-ylmethyl)-phenyl]-[1,2,4]triazolo[1,5-a]pyridin-2yl}-amide]
LpA level, 4 weeks CFB (30 mg q.d.): 3.9% | LpA level, Baseline (30 mg q.d.): 22.5 mg/dL | LpA level, week 4 (30 mg q.d.): 25.9 mg/dL | LpA level, 4 weeks CFB (75 mg q.d.): −3.7% | LpA level, Baseline (75 mg q.d.): 28.5 mg/dL | LpA level, week 4 (75 mg q.d.): 23.6 mg/dL | LpA level, 4 weeks CFB (150 mg q.d.): 7.0% | LpA level, Baseline (150 mg q.d.): 29.5 mg/dL | LpA level, week 4 (150 mg q.d.): 35 mg/dL | LpA level, 4 weeks CFB (300 mg q.d.): 4.4% | LpA level, Baseline (300 mg q.d.): 13.4 mg/dL | LpA level, week 4 (300 mg q.d.): 10.1 mg/dL
